The conditions of series [1]: snar bond.
The target in series [2] is CFTR-mediated chloride transport (Homo sapiens, UniProt P13569). It is filed as cell-based. To be noted: enteroid cells incubated with test compound 18-24 hours, acute 10 μM forskolin and 300 nM Compound III; for Max. Activity: % of chloride transport with 3 μM Compound A, 3 μM Compound II and 300 nM acute Compound III triple combination control. In short, it runs like this:
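Membrane-potential fluorescence AUC over 15 min quantified CFTR chloride transport after acute forskolin (10 μM), IBMX (100 μM) and Compound III (300 nM) in chloride-free buffer. Human enteroid cells were pretreated with compound for 18–24 h; % Activity is relative to 3 μM Compound A + 3 μM Compound II + 300 nM Compound III.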

Where two headings read alike, the source gives them in different places.

CFTR-mediated chloride transport, sequence (P13569 whole entry, looked up): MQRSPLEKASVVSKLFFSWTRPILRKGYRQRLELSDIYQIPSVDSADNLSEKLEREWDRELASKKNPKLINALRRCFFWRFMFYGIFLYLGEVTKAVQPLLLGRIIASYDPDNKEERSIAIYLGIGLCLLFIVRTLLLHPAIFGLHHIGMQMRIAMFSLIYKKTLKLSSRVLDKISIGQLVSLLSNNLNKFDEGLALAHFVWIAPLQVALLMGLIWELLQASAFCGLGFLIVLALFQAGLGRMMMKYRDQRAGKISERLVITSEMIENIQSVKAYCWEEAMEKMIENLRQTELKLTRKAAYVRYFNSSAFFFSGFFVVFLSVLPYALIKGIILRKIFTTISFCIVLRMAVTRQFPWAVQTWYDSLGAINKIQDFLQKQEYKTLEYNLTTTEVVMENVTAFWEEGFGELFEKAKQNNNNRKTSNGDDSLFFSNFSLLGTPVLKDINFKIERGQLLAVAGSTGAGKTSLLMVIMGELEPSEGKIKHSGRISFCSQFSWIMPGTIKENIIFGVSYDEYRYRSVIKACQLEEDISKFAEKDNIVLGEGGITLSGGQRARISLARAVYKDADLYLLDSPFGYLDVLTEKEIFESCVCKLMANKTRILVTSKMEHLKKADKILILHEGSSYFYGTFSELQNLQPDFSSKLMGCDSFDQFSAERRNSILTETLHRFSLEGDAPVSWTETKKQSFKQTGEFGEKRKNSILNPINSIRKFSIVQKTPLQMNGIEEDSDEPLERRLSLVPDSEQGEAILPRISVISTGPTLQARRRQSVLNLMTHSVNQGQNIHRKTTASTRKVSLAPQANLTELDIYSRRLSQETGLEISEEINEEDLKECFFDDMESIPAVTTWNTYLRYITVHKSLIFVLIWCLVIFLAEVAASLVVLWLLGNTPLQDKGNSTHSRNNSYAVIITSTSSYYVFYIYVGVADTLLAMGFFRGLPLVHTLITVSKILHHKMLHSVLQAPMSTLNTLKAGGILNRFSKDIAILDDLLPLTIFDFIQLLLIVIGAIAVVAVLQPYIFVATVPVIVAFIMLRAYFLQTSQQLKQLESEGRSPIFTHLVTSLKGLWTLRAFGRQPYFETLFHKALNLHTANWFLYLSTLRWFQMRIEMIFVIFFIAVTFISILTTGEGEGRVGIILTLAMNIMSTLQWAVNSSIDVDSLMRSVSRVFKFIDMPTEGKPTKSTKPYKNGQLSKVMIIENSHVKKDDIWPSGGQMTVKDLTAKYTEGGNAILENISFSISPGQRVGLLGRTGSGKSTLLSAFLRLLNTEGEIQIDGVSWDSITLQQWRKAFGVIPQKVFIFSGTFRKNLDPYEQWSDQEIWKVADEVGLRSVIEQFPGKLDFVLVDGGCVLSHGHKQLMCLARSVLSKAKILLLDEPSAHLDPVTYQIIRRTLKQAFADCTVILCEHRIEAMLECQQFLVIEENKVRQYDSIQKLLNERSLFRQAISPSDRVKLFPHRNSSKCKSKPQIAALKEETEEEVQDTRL

One may read the EC50 as the concentration at which the effect is half-maximal. For `CC1(C)CC2CCCOc3cccc(n3)S(=O)(=O)NC(=O)c3ccc(-n4ccc(OCCC5(C(F)(F)F)CC5)n4)nc3N1C2` (racemic) [Compound 40, 12,12-dimethyl-8-(3-{2-[1-(trifluoromethyl)cyclopropyl]ethoxy}-1H-pyrazol-1-yl)-18-oxa-2λ^6-thia-3,9,11,23-tetraazatetracyclo[17.3.1.111,14.05,10]tetracosa-1(22),5,7,9,19(23),20-hexaene-2,2,4-trione], the ring closure, isolated yield in series [1] (from CC1(C)CC(CCCOc2cccc(S(=O)(=O)NC(=O)c3ccc(-n4ccc(OCCC5(C(F)(F)F)CC5)n4)nc3Cl)n2)CN1, 15-membered ring, K2CO3/CsF/3A MS, DMSO, 37.3 mM, 150.0 °C, 8.0 h) is 48%. Besides, in series [2], the EC50 is < 1000 nM and the “Max. Activity” value is on record as “++ (++ is 30-60%)”.

In turn, `CC1(C)CC2CCCOc3ccc(cc3)S(=O)(=O)NC(=O)c3ccc(-n4ccc(OCCC5(C(F)(F)F)CC5)n4)nc3N1C2` (racemic) [Compound 88, 12,12-Dimethyl-8-(3-{2-[1-(trifluoromethyl)cyclopropyl]ethoxy}-1H-pyrazol-1-yl)-18-oxa-2λ^6-thia-3,9,11-triazatetracyclo[17.2.2.111,14.05,10]tetracosa-1(21),5,7,9,19,22-hexaene-2,2,4-trione] yielded a ring closure, isolated yield in series [1] (from CC1(C)CC(CCCOc2ccc(S(=O)(=O)NC(=O)c3ccc(-n4ccc(OCCC5(C(F)(F)F)CC5)n4)nc3Cl)cc2)CN1, 16-membered ring, K2CO3/CsF/3A MS, DMSO, 37.3 mM, 35.0 h) of 4%. Further, in series [2], the EC50 was < 1000 nM and the “Max. Activity” value was “++ (++ is 30-60%)”.

`CC1(C)CC2CCCCOc3ccc(cc3)S(=O)(=O)NC(=O)c3ccc(-n4ccc(OCCC5(C(F)(F)F)CC5)n4)nc3N1C2` (racemic) [Compound 89, 12,12-dimethyl-8-(3-{2-[1-(trifluoromethyl)cyclopropyl]ethoxy}-1H-pyrazol-1-yl)-19-oxa-2λ^6-thia-3,9,11-triazatetracyclo[18.2.2.111,14.05,10]pentacosa-1(22),5,7,9,20,23-hexaene-2,2,4-trione] gave a ring closure, isolated yield in series [1] (from CC1(C)CC(CCCCOc2ccc(S(=O)(=O)NC(=O)c3ccc(-n4ccc(OCCC5(C(F)(F)F)CC5)n4)nc3Cl)cc2)CN1, 17-membered ring, K2CO3/CsF/3A MS, DMSO, 36.5 mM, 165.0 °C, 18.0 h) of 21%. Besides, in series [2], the EC50 was < 1000 nM and the “Max. Activity” value is listed as “++ (++ is 30-60%)”.

Turning to `CC1(C)CCC2CCNc3cccc(n3)S(=O)(=O)NC(=O)c3ccc(-n4ccc(OCCC5(C(F)(F)F)CC5)n4)nc3N21` (racemic) [Compound 108, 8,8-Dimethyl-12-(3-{2-[1-(trifluoromethyl)cyclopropyl]ethoxy}-1H-pyrazol-1-yl)-18λ^6-thia-2,9,11,17,23-pentaazatetracyclo[17.3.1.05,9.010,15]tricosa-1(23),10(15),11,13,19,21-hexaene-16,18,18-trione], the ring closure, isolated yield in series [1] (from CC(C)(C)OC(=O)N1C(CCNc2cccc(S(=O)(=O)NC(=O)c3ccc(-n4ccc(OCCC5(C(F)(F)F)CC5)n4)nc3Cl)n2)CCC1(C)C, 13-membered ring, TFA (Boc off), CsF/K2CO3/3A MS, DMSO, 84.6 mM, 130.0 °C, 2 steps) was determined as 55%. Also, in series [2], the EC50 is < 1000 nM and the “Max. Activity” value is on record as “++ (++ is 30-60%)”.

In the case of `CC1(C)CCC2CCCNc3cccc(n3)S(=O)(=O)NC(=O)c3ccc(-n4ccc(OCCC5(C(F)(F)F)CC5)n4)nc3N21` (stereo not drawn) [Compound 16, 12,12-dimethyl-8-(3-{2-[1-(trifluoromethyl)cyclopropyl]ethoxy}-1H-pyrazol-1-yl)-2λ^6-thia-3,9,11,19,24-pentaazatetracyclo[18.3.1.05,10.011,15]tetracosa-1(23),5,7,9,20(24),21-hexaene-2,2,4-trione], in series [1] (from CC1(C)CCC(CCCNc2cccc(S(=O)(=O)NC(=O)c3ccc(-n4ccc(OCCC5(C(F)(F)F)CC5)n4)nc3Cl)n2)N1, 14-membered ring, K2CO3/CsF, DMSO, 84.1 mM, 150.0 °C), the ring closure, isolated yield worked out at 58%. In addition, in series [2], the EC50 is < 1000 nM and the “Max. Activity” value is “++ (++ is 30-60%)”.

On to `CC1(C)CC2CNc3cccc(n3)S(=O)(=O)NC(=O)c3ccc(-n4ccc(OCCC5(C(F)(F)F)CC5)n4)nc3N1C2` (stereo not drawn) [Compound 17, 6,6-dimethyl-10-(3-{2-[1-(trifluoromethyl)cyclopropyl]ethoxy}-1H-pyrazol-1-yl)-16λ^6-thia-2,7,9,15,21-pentaazatetracyclo[15.3.1.14,7.08,13]docosa-1(20),8,10,12,17(21),18-hexaene-14,16,16-trione], for which the ring closure, isolated yield in series [1] (from CC(C)(C)OC(=O)N1CC(CNc2cccc(S(=O)(=O)NC(=O)c3ccc(-n4ccc(OCCC5(C(F)(F)F)CC5)n4)nc3Cl)n2)CC1(C)C, 13-membered ring, K2CO3/CsF/3A MS, DMSO, 45.0 mM, 155.0 °C, 2 steps) came to 57%. In series [2], the EC50 lay within 1000 to 3000 nM and the “Max. Activity” value is “++ (++ is 30-60%)”.

`CC1(C)CC2CCNc3cccc(n3)S(=O)(=O)NC(=O)c3ccc(-n4ccc(OCCC5(C(F)(F)F)CC5)n4)nc3N1C2` (stereo not drawn) [Compound 20, 7,7-dimethyl-11-(3-{2-[1-(trifluoromethyl)cyclopropyl]ethoxy}-1H-pyrazol-1-yl)-17λ^6-thia-2,8,10,16,22-pentaazatetracyclo[16.3.1.15,8.09,14]tricosa-1(21),9,11,13,18(22),19-hexaene-15,17,17-trione] had a ring closure, isolated yield in series [1] (from CC1(C)CC(CCNc2cccc(S(=O)(=O)NC(=O)c3ccc(-n4ccc(OCCC5(C(F)(F)F)CC5)n4)nc3Cl)n2)CN1, 14-membered ring, K2CO3/CsF/3A MS, DMSO, 54.4 mM, 155.0 °C) of 43%. For the same compound, in series [2], the EC50 was < 1000 nM and the “Max. Activity” value is reported as “+++ (+++ is >60%)”.

Compound `CC1(C)CC2CCCCn3ccc(n3)S(=O)(=O)NC(=O)c3ccc(-n4ccc(OCCC5(C(F)(F)F)CC5)n4)nc3N1C2` (stereo not drawn) [Compound 39, 21,21-dimethyl-4-(3-{2-[1-(trifluoromethyl)cyclopropyl]ethoxy}-1H-pyrazol-1-yl)-10λ^6-thia-1,3,9,14,23-pentaazatetracyclo[17.2.1.111,14.02,7]tricosa-2,4,6,11(23),12-pentaene-8,10,10-trione] yielded a ring closure, isolated yield in series [1] (from CC(C)(C)OC(=O)N1CC(CCCCn2ccc(S(=O)(=O)NC(=O)c3ccc(-n4ccc(OCCC5(C(F)(F)F)CC5)n4)nc3Cl)n2)CC1(C)C, 15-membered ring, HCl (Boc off), K2CO3/CsF/3A MS, DMSO, 63.7 mM, 150.0 °C, 2 steps) of 37%. Moreover, in series [2], the EC50 was 1000 to 3000 nM and the “Max. Activity” value is “+++ (+++ is >60%)”.

Turning to `CC1(C)CC2CCCCc3ccc(cc3)S(=O)(=O)NC(=O)c3ccc(-n4ccc(OCCC5(C(F)(F)F)CC5)n4)nc3N1C2` (stereo not drawn) [Compound 52, 12,12-dimethyl-8-(3-{2-[1-(trifluoromethyl)cyclopropyl]ethoxy}-1H-pyrazol-1-yl)-2λ^6-thia-3,9,11-triazatetracyclo[17.2.2.111,14.05,10]tetracosa-1(21),5,7,9,19,22-hexaene-2,2,4-trione], the ring closure, isolated yield in series [1] (from CC1(C)CC(CCCCc2ccc(S(=O)(=O)NC(=O)c3ccc(-n4ccc(OCCC5(C(F)(F)F)CC5)n4)nc3Cl)cc2)CN1, 16-membered ring, K2CO3/CsF/3A MS, DMSO, 37.4 mM, 155.0 °C) was found to be 26%. Also, in series [2], the EC50 was < 1000 nM and the “Max. Activity” value is given as “++ (++ is 30-60%)”.

As to `CC1(C)CC2CCCCc3cccc(c3)S(=O)(=O)NC(=O)c3ccc(-n4ccc(OCCC5(C(F)(F)F)CC5)n4)nc3N1C2` (stereo not drawn) [Compound 53, 12,12-dimethyl-8-(3-{2-[1-(trifluoromethyl)cyclopropyl]ethoxy}-1H-pyrazol-1-yl)-2λ^6-thia-3,9,11-triazatetracyclo[17.3.1.111,14.05,10]tetracosa-1(22),5,7,9,19(23),20-hexaene-2,2,4-trione], the ring closure, isolated yield in series [1] (from CC1(C)CC(CCCCc2cccc(S(=O)(=O)NC(=O)c3ccc(-n4ccc(OCCC5(C(F)(F)F)CC5)n4)nc3Cl)c2)CN1, 15-membered ring, K2CO3/CsF/3A MS, DMSO, 32.0 mM, 165.0 °C, 6.0 h) was found to be 51%. For the same compound, in series [2], the EC50 is < 1000 nM and the “Max. Activity” value is “+++ (+++ is >60%)”.

In the case of `CC1(C)C[C@@H]2CCCNc3cccc(n3)S(=O)(=O)NC(=O)c3ccc(-n4ccc(OCCC(C5CC5)C5CC5)n4)nc3N1C2` [Compound 66, (14S)-8-[3-(3,3-dicyclopropylpropoxy)-1H-pyrazol-1-yl]-12,12-dimethyl-2λ^6-thia-3,9,11,18,23-pentaazatetracyclo[17.3.1.111,14.05,10]tetracosa-1(22),5,7,9,19(23),20-hexaene-2,2,4-trione], in series [1] (from CC1(C)C[C@H](CCCNc2cccc(S(=O)(=O)NC(=O)c3ccc(-n4ccc(OCCC(C5CC5)C5CC5)n4)nc3Cl)n2)CN1, 15-membered ring, K2CO3/CsF, NMP, 75.7 mM, 150.0 °C, 20.0 h), the ring closure, isolated yield turned out to be 63%. Moreover, in series [2], the 50% effective concentration (EC50) is < 1000 nM and the “Max. Activity” value is listed as “+++ (+++ is >60%)”.

`CC1(C)CC2CCCCOc3ccc(cn3)S(=O)(=O)NC(=O)c3ccc(-n4ccc(OCCC5(C(F)(F)F)CC5)n4)nc3N1C2` (stereo not drawn) [Compound 94, 12,12-dimethyl-8-(3-{2-[1-(trifluoromethyl)cyclopropyl]ethoxy}-1H-pyrazol-1-yl)-19-oxa-2λ^6-thia-3,9,11,21-tetraazatetracyclo[18.2.2.111,14.05,10]pentacosa-1(23),5,7,9,20(24),21-hexaene-2,2,4-trione] returned a ring closure, isolated yield in series [1] (from CC(C)(C)OC(=O)N1CC(CCCCOc2ccc(S(=O)(=O)NC(=O)c3ccc(-n4ccc(OCCC5(C(F)(F)F)CC5)n4)nc3Cl)cn2)CC1(C)C, 17-membered ring, HCl (Boc off), K2CO3/CsF/3A MS, DMSO, 59.4 mM, 150.0 °C, 2 steps) of 26%. Besides, in series [2], the EC50 is > 3000 nM and the “Max. Activity” value is recorded as “+ (+ is <30%)”.

The values are drawn from patent publication US11866450B2, “Modulators of Cystic Fibrosis Transmembrane Conductance regulator, pharmaceutical compositions, methods of treatment, and process for making the modulators” (priority 2018, dated 2024).
